Assays:
[1] = test system: sCTLA-4 and AIMp1 secretion from human DC; assay: sCTLA-4 and AIMp1 western blots of human DC culture supernatants with TLR agonistic stimuli; type: cell-based; conditions: 1 μg/ml, absence of antigenic loading
[2] = test system: AIMp1 and sCTLA-4 secretion from mouse DC; assay: AIMp1 / sCTLA-4 Western blot of mouse DC culture supernatants; type: cell-based; conditions: mouse DC (not shown), 1 μg/ml, absence of antigenic loading
Text: (§1) FIGS. 1A-F: Concurrent loading of antigenically related MHC Class I and II determinants promote TH1-polarization of mouse DC. […] This effect was abrogated by siRNA knockdown of AIMp1. Antigens were derived from the RAW264.7 cell line. Heterologous Class II antigens were derived from the 4T1 breast cancer cell line. Y-axis: fold change in IL-12p70 secretion from unloaded (UL) DC. […] Top panel: AIMp1 release following homologous loading with RAW264.7 antigenic determinants. Heterologous lysate derived from 4T1. Bottom panel: AIMp1 release following homologous loading with primary SV antigenic determinants. Heterologous lysate derived from primary prostate. […] Shown: sCTLA-4 release following homologous loading with RAW264.7 antigenic determinants. Heterologous lysate derived from 4T1. […] Data shown are indicative of typical AIMp1 knockdown of >70%. […] This effect was abrogated by treatment of homologously-loaded DC with AIMp1 siRNA. Heterologous lysate was primary prostate. Y-axis: fold change in total cell count in comparison to unloaded (UL) DC. […]
Quantitation of Western Blot Images—Western blot chemiluminescent signal was detected using a ChemiDoc XRS digital imaging system running Image Lab software Version 2.0.1 (Bio-Rad Laboratories, Hercules, Calif.). All Western blots were quantitated by densitometry of Ponceau S (Sigma-Aldrich) stained membranes. […]

CD8^+ T-cells = assay: In vitro co-culture of loaded mouse DC with splenocytes, T-cell populations; type: cell-based; conditions: loaded H2-DM^−/− DC with wild type syngeneic splenocytes
Text: as §1, with “prostate.” for “prostate. Y-axis: fold change in total cell count in comparison to unloaded (UL) DC.”
FIGS. 3A-G: AIMp1/sCTLA-4 modulation is dependent upon binding of homologous class I and II peptide to MHC. […] (B) Densitometry quantitation of AIMp1/sCTLA-4 ratios of the data depicted in (a) over three independent experiments. […] (Glycine Pair: Class I=SEQ ID NO: 3, Class II=SEQ ID NO: 2; Methionine Pair: Class I=SEQ ID NO: 8, Class II=SEQ ID NO: 9) (F) Densitometric quantitation of the data presented in (e). […]

H2-DM^−/− DC = assay: AIMp1 / sCTLA-4 secretion from H2-DM-/- DC loaded with class I peptide; type: cell-based, mouse
Text: FIGS. 3A-G: AIMp1/sCTLA-4 modulation is dependent upon binding of homologous class I and II peptide to MHC. (A) sCTLA-4 (right) and AIMp1 (left) western blots of wild type (top) and H2-DM^−/− (bottom) murine DC culture supernatants following single, homologous, or heterologous loading with SV mRNA and lysate. Representative experiment shown. (B) Densitometry quantitation of AIMp1/sCTLA-4 ratios of the data depicted in (a) over three independent experiments. Top panel: wild type DC. Bottom panel: H2-DM^−/− DC. […] (Glycine Pair: Class I=SEQ ID NO: 3, Class II=SEQ ID NO: 2; Methionine Pair: Class I=SEQ ID NO: 8, Class II=SEQ ID NO: 9) (F) Densitometric quantitation of the data presented in (e). […]
Preparation of Vaccine Materials, Loading of DC, and In vitro CoCulture—Seminal vesicle (SV) and prostate were harvested from 10 week old male mice and immediately frozen at −80° C. […] To generate mRNA, total RNA was isolated from homogenized tissue using Trizol reagent (Life Technologies, Carlsbad, Calif.) according to the manufacturer's instructions, and mRNA was isolated from total RNA using an Oligotex mRNA Maxi Kit (Qiagen, Valencia, Calif.) also according to the manufacturer's instructions. mRNA was quantitated with a Nanodrop spectrophotometer (Thermo Scientific) and integrity was verified by gel electrophoresis. […]

## polyinosine-polycytidylic acid [poly(I:C)]
[1]
  sCTLA-4 or AIMp1 secretion with TLR agonist: Neither poly(I:C), LPS, flagellin, nor CpG-ODN altered sCTLA-4 or AIMp1 secretion
[2]
  sCTLA-4 or AIMp1 secretion with TLR agonist: Neither poly(I:C), LPS, flagellin, nor CpG-ODN altered sCTLA-4 or AIMp1 secretion

## MRMATPLLM [H-2D^b CLIP]
CD8^+ T-cells
  CD8^+CD25^+ T cells after coculture: increase in CD8^+CD25^+ T cells
H2-DM^−/− DC; SIINFEKL as control
  AIMp1 release: Substantial AIMp1 release was observed in a dose-dependent fashion
H2-DM^−/− DC; dose-dependent
  sCTLA-4 secretion: diminution of sCTLA-4 secretion

## flagellin
[1]
  sCTLA-4 or AIMp1 secretion with TLR agonist: Neither poly(I:C), LPS, flagellin, nor CpG-ODN altered sCTLA-4 or AIMp1 secretion
[2]
  sCTLA-4 or AIMp1 secretion with TLR agonist: Neither poly(I:C), LPS, flagellin, nor CpG-ODN altered sCTLA-4 or AIMp1 secretion
